According to patent publication US8372840B2, “Potassium channel blockers” (Xention Limited, priority 2008, dated 2013):

Tests used:
hKv1.5 = hKv1.5 (Homo sapiens, UniProt P22460); assay: Kv1.5 Autopatch Electrophysiology (whole cell patch-clamp); format: cell-based; conditions: compound 1 μM, step to 0 mV for 1000 ms, total charge, room temperature (22-24° C.); for inhibition at 1 µM: read-out: hKv1.5 % inh.
Description: The external bathing solution contained (in mM): 150 NaCl, 10 KCl, […], 3 MgCl2, 1 CaCl2, 10 HEPES, pH 7.4. Patch pipettes were filled with an electrode solution of composition (in mM): 160 KCl, 0.5 MgCl2, 10 HEPES, 1 EGTA, pH 7.4 with KOH.
Compounds were dissolved in DMSO (100%) and made up in the external bather at a concentration of 1 μM. All experiments were conducted at room temperature (22-24° C.).
A cell suspension (10 ml), with a density of 100,000 cells/ml, was aliquoted into a 15 ml centrifuge tube and transferred to an incubator (37° C., 5% CO2) for approximately one hour before use. Following 60 min incubation, a tube was taken and centrifuged at 1000 rpm for 4 mins at room temperature. 9.5 ml supernatant was thence discarded, leaving a cell pellet at the bottom of the tube. The pellet was then resuspended using 100 μl of cold (4° C.), filtered (0.22 μm), 0.2% BSA/bather solution (0.02 g BSA/10 ml bather). The bottom of the tube was manually agitated gently until the solution became cloudy with cells. The 100 μl cell resuspension solution was then stored on the bench at 4° C. (using a Peltier-based temperature control device) until used.
A length of capillary glass (1B150E-4, WPI) was dipped into the cell suspension solution, such that ˜3 cm column of fluid was taken up by capillary action. A Ag/AgCl wire was dropped into the non-dipped end of the capillary also. The outside of the solution-filled end of the capillary was then dried and the capillary was loaded into the AutoPatch™
(§1) Borosilicate glass patch pipettes (from 1.5 mm OD, thin-walled filamented, GC150-TF capillary glass, Harvard) were pulled using a DMZ pipette puller (Zeitz Instruments), and were back-filled using the internal pipette solution, being careful that no bubbles remain at the tip or in the body of the pipette. Patch pipettes typically had resistances of 2.3-3.5 MΩ. Once filled, the pipette tip and a proportion of the shaft (˜15 mm) were dipped into Sigmacote (Sigma). The recording pipette was then loaded into the AutoPatch™. Automated patch-clamping was initiated by the operator, but thereafter AutoPatch.exe continued the experiment providing that pre-set conditions and criteria were satisfied.
Whole cell patch-clamp recordings were made using the AutoPatch™ rig, which incorporated an EPC9 amplifier (HEKA, Germany) under control of Pulse software (v8.54, HEKA, Germany), a motion controller with 2 translators (Newport, UK), valve controller (VF1) and a c-level suction device all at room temperature (22-24° C.). This equipment was completely under the control of AutoPatch.exe and operator intervention was only made when there was a requirement to refill the drug reservoirs or to prevent the loss of a cell due to a technical error. Cells with an Rseries greater than 18 MΩ were discounted from the experiment.
Qualification stages prior to perfusion and drug application ensured that the observed current met the criteria for the experiment. Only those cells with an IK>500 pA were used for experiments. Cells were continuously perfused with external solution at a flow rate of 1.8-2 ml/minute. […] Online analysis of the hKv1.5 current during the application of compounds was performed by the AutoPatch™ software. Voltage-step protocols and analysis of data was performed as described for conventional electrophysiology.
Electrophysiology voltage-step protocols and analysis of data was performed as follows. Data was sampled at 5 kHz, and filtered with a −3 dB bandwidth of 2.5 kHz. Cells were held at a voltage of −80 mV. Currents were evoked to a voltage step for 1000 ms in duration at 0 mV every 5 s. Currents were analysed using Pulsefit software (v8.54, HEKA, Germany), with the total charge measured during the whole of the voltage step. All other plots were produced using Igor Pro (WaveMetrics).

human Kv1.3 = biological target: T1, human Kv1.3 (Homo sapiens, UniProt P22001); assay: Kv1.3 Autopatch Electrophysiology (whole cell patch-clamp, stably transfected CHO cells); format: cell-based; conditions: compound 1 μM, step to +30 mV for 500 ms, inhibition of total charge relative to control, room temperature; for inhibition at 1 µM: CHO, read-out: hKv1.3 % inh.
T1 construct: expressed in transfected cells; host or cells: stably transfected cells grown in medium for CHO cells
Description: Cells stably transfected with cDNA for human Kv1.3 (in pcDNA3.1) were grown in Ex-cell 302 serum-free medium for CHO cells, supplemented with 10 μl/ml [100×] glutamine, 500 μg/ml G418 ([…]), and 1% HT supplement (50×, hypoxanthine and thymidine). Compounds were tested on these cells using the AutoPatch technology in whole cell mode.
The external bathing solution contained (in mM): 150 NaCl, 10 KCl, 1 MgCl2, 3 CaCl2, 10 HEPES, pH 7.4 with NaOH. Patch pipettes were filled with an electrode solution of composition (in mM): 100 K-Gluconate, 20 KCl, 1 MgCl2, 1 CaCl2, 10 HEPES, 11 EGTA, 5 ATP-Na2, 2 Glutathione pH 7.2 with KOH.
Compounds were dissolved in DMSO (100%) and made up in the external bather at a concentration of 1 μM immediately prior to use. All experiments were conducted at room temperature.
A cell suspension (10 ml), with a density of 6×10^6 cells, was aliquoted into a 15 ml centrifuge tube and stored at 4° C. before use. Prior to use a tube was taken and centrifuged at 1000 rpm for 4 mins at room temperature. The supernatant was then discarded, leaving a cell pellet at the bottom of the tube. The pellet was then resuspended using 1 ml of cold (4° C.), filtered (0.22 μm), 0.05% BSA/bather solution (0.05 g BSA/100 ml bather). The bottom of the tube was manually agitated followed by gentle tituration. The cell suspension was then placed in the AutoPatch™ temperature controlled cell-hotel at 14° C. and regularly titurated.
as §1, with “A length of Teflon capillary tubing was dipped into the cell suspension solution, and a column of fluid was taken up by negative pressure. The column of fluid was in electrically connectivity with a Ag/AgCl reference electrode. Borosilicate” for “Borosilicate”, “remained” for “remain”, “2.5-3.5” for “2.3-3.5”, “pipettes were placed in a multiwell array and mounted on” for “pipette was then loaded into”, “AutoPatch™ machine.” for “AutoPatch™.”, “patch-clamping and drug-application” for “patch-clamping”
Whole cell patch-clamp recordings were made using the AutoPatch™ rig, which incorporated an EPC9 or EPC10 amplifier (HEKA, Germany) under control of Pulse software (v8.54 or v8.76, HEKA, Germany), a cell applicator, automated drug application system (DAS), valve controller (VF1) and a suction device all at room temperature. This equipment was completely under the control of AutoPatch.exe and operator intervention was only made when there was a requirement to refill the bather reservoirs or to prevent the loss of a cell due to a technical error.
Qualification stages prior to perfusion and drug application ensured that the observed current met the criteria for the experiment. Cells were continuously perfused with external solution at a flow rate of ˜2 ml/minute.
Electrophysiology voltage-step protocols and analysis of data was performed as follows. Data were sampled at 5 kHz, and filtered with a −3 dB bandwidth of 2.5 kHz. Cells were held at a voltage of −80 mV. Currents were evoked by a voltage step to +30 mV for 500 ms in duration applied every 15 s. Online analysis of the hKv1.3 current during the application of compounds was performed by the Pulse (v8.54 or v8.76, HEKA, Germany), Excel (Microsoft, USA) and AutoPatch™ software, with the total charge measured during the whole of voltage step Inhibition of charge movement in the presence of drug was calculated relative to control.

T1 sequence (P22001 whole entry): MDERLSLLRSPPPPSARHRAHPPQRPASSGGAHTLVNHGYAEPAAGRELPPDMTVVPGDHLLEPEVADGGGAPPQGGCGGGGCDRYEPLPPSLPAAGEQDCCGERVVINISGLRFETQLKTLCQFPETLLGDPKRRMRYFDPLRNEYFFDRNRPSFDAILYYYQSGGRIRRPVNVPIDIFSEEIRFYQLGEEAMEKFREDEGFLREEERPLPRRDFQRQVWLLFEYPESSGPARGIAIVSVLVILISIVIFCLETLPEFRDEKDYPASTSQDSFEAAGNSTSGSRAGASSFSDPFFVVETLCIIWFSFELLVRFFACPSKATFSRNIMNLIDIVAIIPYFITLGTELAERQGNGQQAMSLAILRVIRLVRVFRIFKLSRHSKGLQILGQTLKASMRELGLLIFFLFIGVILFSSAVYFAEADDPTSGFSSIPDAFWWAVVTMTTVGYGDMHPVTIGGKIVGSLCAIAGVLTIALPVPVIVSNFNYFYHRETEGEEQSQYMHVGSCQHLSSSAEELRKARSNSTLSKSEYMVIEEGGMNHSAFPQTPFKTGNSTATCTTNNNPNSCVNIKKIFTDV
hKv1.5, sequence (P22460 whole entry): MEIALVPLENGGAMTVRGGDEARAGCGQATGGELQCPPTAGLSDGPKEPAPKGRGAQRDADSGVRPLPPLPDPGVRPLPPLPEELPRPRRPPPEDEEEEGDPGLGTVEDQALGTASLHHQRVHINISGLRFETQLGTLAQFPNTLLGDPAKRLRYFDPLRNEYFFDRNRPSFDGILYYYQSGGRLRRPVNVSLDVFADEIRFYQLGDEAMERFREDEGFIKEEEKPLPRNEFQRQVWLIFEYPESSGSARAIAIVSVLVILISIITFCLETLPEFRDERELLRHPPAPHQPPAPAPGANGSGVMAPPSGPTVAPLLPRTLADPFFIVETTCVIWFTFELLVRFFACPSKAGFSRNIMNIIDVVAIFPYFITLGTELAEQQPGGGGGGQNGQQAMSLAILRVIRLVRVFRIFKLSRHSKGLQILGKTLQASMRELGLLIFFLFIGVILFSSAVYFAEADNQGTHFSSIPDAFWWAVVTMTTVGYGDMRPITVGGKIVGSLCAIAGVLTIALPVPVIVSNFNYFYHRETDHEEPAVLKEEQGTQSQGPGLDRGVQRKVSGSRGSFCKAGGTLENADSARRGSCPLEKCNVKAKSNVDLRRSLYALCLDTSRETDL

Compound | inhibition at 1 µM (hKv1.5) [%] | inhibition at 1 µM (human Kv1.3) [%] | hKv1.5 % inh. (hKv1.5) [%] | hKv1.3 % inh. (human Kv1.3) [%]
Cn1ccc(S(=O)(=O)N(Cc2ccc(Cl)cc2)c2cccc(OCC(=O)Nc3ccccn3)c2)n1 [Example 49, 2-{3-[(4-Chloro-benzyl)-(1-methyl-1H-pyrazole-3-sulfonyl)-amino]-phenoxy}-N-pyridin-2-yl-acetamide] | 99 | 95 | – | –
1-Methyl-1H-pyrazole-3-sulfonic acid (4-chloro-benzyl)-[3-(2-oxo-imidazolidin-1-yl)-phenyl]-amide [Example 42] | – | – | 77 | 99
O=S(=O)(c1ccccc1)N(Cc1ccccc1)c1cccc(N2CCN(c3ccccc3)CC2)c1 [Example 5, N-Benzyl-N-[3-(4-phenyl-piperazin-1-yl)-phenyl]-benzenesulfonamide] | 91 | 88 | – | –
Pyridine-3-sulfonic acid benzyl-[3-(4-phenyl-piperazin-1-yl)-phenyl]-amide [Example 16] | – | – | 91 | 97
Pyridine-3-sulfonic acid (4-chloro-benzyl)-[3-(2-oxo-imidazolidin-1-ylbenzyl)-[3-(2-oxo-imidazolidin-1-yl)-phenyl]-amide [Example 48] | – | – | 89 | 96
4-Methyl-3,4-dihydro-2H-benzo[1,4]oxazine-7-sulfonic acid benzyl-[3-(2-oxo-pyrrolidin-1-yl)-phenyl]-amide [Example 18] | – | – | 56 | 65
O=C1NCCN1c1cccc(N(Cc2ccccc2)S(=O)(=O)c2ccccc2)c1 [Example 1, N-Benzyl-N-[3-(2-oxo-imidazolidin-1-yl)-phenyl]-benzenesulfonamide] | 66 | 86 | – | –
O=S(=O)(c1ccccc1)N(Cc1ccccc1)c1cccc(N2CCNC(c3ccccc3)C2)c1 (stereo not shown) [Example 14, N-Benzyl-N-[3-(3-phenyl-piperazin-1-yl)-phenyl]-benzenesulfonamide] | 77 | 94 | – | –
